{"source": "patent US20070219185A1", "about": "“Preventive or therapeutic agent for neuropathic pain” (priority 2004, published 2007)", "key": {"[1]": {"system": "STZ-induced diabetic rats", "test": "Nociceptive threshold in STZ-induced diabetic rats (single administration), Randall-Selitto method", "format": "in vivo, rat", "details": "for Nociceptive threshold before administration / Nociceptive threshold after administration: mean±SE; for Nociceptive threshold after administration: one hour after administration", "procedure": "Measurement of the Nociceptive Threshold in STZ-Induced Diabetic Rats (Single Administration)\nSTZ (50 mg/kg) was administered intravenously to male SD stain rats to induce diabetes mellitus. Test articles were administered 14 days later (10 rats in each group). Test articles used were clonidine as the α2 AR stimulant, terbutaline as the β2 AR stimulant and the above-mentioned Compound 1. Normal and Control groups received the medium (0.5% methylcellulose). Before and one hour after administration of test articles, the nociceptive threshold against pressure stimulation given to the right hind-paw of rats was measured by Randall-Selitto method, and compared with that in Control group."}, "[2]": {"system": "STZ-induced diabetic rats", "test": "Nociceptive threshold in STZ-induced diabetic rats (repeated administration), Randall-Selitto method", "format": "in vivo, rat", "details": "for Nociceptive threshold before administration / Nociceptive threshold after administration / nociceptive threshold following repeated administration for 14 days: Example 2; for Nociceptive threshold before administration / Nociceptive threshold after administration: 14 times, mean±SE; for Nociceptive threshold before administration: before the final administration; for Nociceptive threshold after administration: one hour after the final administration; for nociceptive threshold following repeated administration for 14 days: H group (clonidine 1.0 mg/kg subcutaneous; terbutaline 10 mg/kg oral), versus Control group; for nociceptive threshold after 14-day repeated, sole administration: Example 3, FIG. 1, L and M groups (clonidine 0.1, 0.3 mg/kg subcutaneous; terbutaline 1, 3 mg/kg oral)", "procedure": "Measurement of the Nociceptive Threshold in STZ-Induced Diabetic Rats (Repeated Administration)\nSTZ (50 mg/kg) was administered intravenously to male SD stain rats to induce diabetes mellitus. […] Normal and Control groups received the medium (0.5% methylcellulose). Before the final administration (before administration of test articles) and after the final administration (one hour after the administration), the nociceptive threshold against pressure stimulation given to the right hind-paw of rats was measured by Randall-Selitto method, and compared with that in Control group."}, "β2 AR": {"target": "T1, β2 AR (Rattus norvegicus, UniProt P10608)", "T1 construct": "the fascia of gravid uterus (β2 AR) as the sources of receptors; from tissue; host or cells: rat gravid uterus (fascia/membrane specimen)", "T1 sequence (P10608 whole entry)": "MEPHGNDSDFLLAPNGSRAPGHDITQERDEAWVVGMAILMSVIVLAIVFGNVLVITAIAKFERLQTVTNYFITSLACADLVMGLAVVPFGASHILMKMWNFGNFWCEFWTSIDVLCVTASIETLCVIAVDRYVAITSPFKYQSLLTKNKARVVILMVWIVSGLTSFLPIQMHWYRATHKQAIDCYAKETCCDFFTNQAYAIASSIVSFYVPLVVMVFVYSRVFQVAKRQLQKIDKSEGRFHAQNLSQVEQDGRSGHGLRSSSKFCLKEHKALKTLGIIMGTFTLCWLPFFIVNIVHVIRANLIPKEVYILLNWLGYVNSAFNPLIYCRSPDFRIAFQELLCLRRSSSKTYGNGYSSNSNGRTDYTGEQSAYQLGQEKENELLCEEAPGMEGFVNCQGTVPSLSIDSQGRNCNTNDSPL", "test": "Receptor binding test of β2 AR", "details": "3H-dihydroalprenolol; fascia of rat gravid uterus; read-out: binding affinity (IC50 value) to β2 AR", "procedure": "Receptor Binding Tests of α2 AR and β2 AR\nReceptor binding tests were conducted in ^3H-p-aminoclonidine and ^3H-dihydroalprenolol (3 rats in each) using specimens of the membrane of rat cerebral cortex (α2 AR) and the fascia of gravid uterus (β2 AR) as the sources of receptors. The binding ability of Compound 1 to α2 AR and β2 AR were obtained by calculating binding inhibition rates (IC50 values) of Compound 1 against the binding abilities of the above-mentioned tracers with both receptors."}, "Seltzer model rats [3]": {"system": "Seltzer model rats", "test": "Nociceptive threshold in Seltzer model rats (single administration), Randall-Selitto method", "format": "in vivo, rat", "details": "Example 6, FIG. 3, 10 mg/kg oral, one hour after administration", "description": "Measurement of the Nociceptive Threshold in Seltzer Model Rats (Single Administration)\nTen, 9-week old male SD rats were anesthetized with pentobarbital (Nembutal injection®), and the right sciatic nerve was exposed. In Nerve ligation group (7 rats), half of the dorsal portion of the nerve was ligated using 5-0 nylon thread. In Normal group (3 rats), the sciatic nerve was only exposed. Three weeks after the model was created, the control group received the medium (0.5% methylcellulose) and Nerve ligation group was given orally test articles. Before the administration (before administration of test articles) and after administration (one hour after the administration of test articles), the nociceptive threshold against pressure stimulation given to the right hind-paw of rats was measured by Randall-Selitto method. Results before and after administration were compared."}, "Seltzer model rats [4]": {"system": "Seltzer model rats", "test": "Nociceptive threshold in Seltzer model rats (repeated administration), Randall-Selitto method", "format": "in vivo, rat", "details": "Example 7, FIG. 4; 10 mg/kg oral, 14-day repeated", "procedure": "Measurement of the Nociceptive Threshold in Seltzer Model Rats (Repeated Administration)\nThirty, 7-week old male SD rats were anesthetized with pentobarbital (Nembutal injection®), and the right sciatic nerve was exposed. In the nerve ligation group (20 rats), half of the dorsal portion of the nerve was ligated using 6-0 silk thread. In the normal group (10 rats), the sciatic nerve was only exposed. Beginning the following day of the model creation, test articles were administered orally once a day, repeatedly, 14 times in total. Normal and Control groups received the medium (0.5% methyl-cellulose) and Nerve ligation group was given orally test articles. One hour after the final administration, the nociceptive threshold against pressure stimulation given to the right hind-paw of rats was measured by Randall-Selitto method, and compared with Control group."}, "[5]": {"details": "Example 1, H group 1.0 mg/kg subcutaneous"}, "[6]": {"details": "Example 1, L group 0.1 mg/kg subcutaneous"}, "[7]": {"details": "H group 1.0 mg/kg subcutaneous once a day"}, "[8]": {"details": "L group 0.1 mg/kg subcutaneous once a day"}, "[9]": {"details": "M group 0.3 mg/kg subcutaneous once a day"}, "[10]": {"details": "Example 1, H group 10.0 mg/kg oral"}, "[11]": {"details": "Example 1, L group 1.0 mg/kg oral"}, "[12]": {"details": "H group 10.0 mg/kg oral once a day"}, "[13]": {"details": "L group 1.0 mg/kg oral once a day"}, "[14]": {"details": "M group 3.0 mg/kg oral once a day"}}, "data": [{"compound": "Clc1cccc(Cl)c1N=C1NCCN1", "note": "[Clonidine, clonidine]", "values": [{"measurement": "analgesic effect compared with Control group", "setting": "[1]; Example 1, H group 1.0 mg/kg subcutaneous, after administration", "value": "apparent analgesic effect"}, {"measurement": "Nociceptive threshold before administration", "setting": "[1]; [5]", "value": "115.4 ± 8.9", "unit": "g"}, {"measurement": "Nociceptive threshold after administration", "setting": "[1]; [5]", "value": "325.8 ± 29.8", "unit": "g"}, {"measurement": "Nociceptive threshold before administration", "setting": "[1]; [6]", "value": "122.8 ± 7.5", "unit": "g"}, {"measurement": "Nociceptive threshold after administration", "setting": "[1]; [6]", "value": "155.8 ± 16.3", "unit": "g"}, {"measurement": "Nociceptive threshold before administration", "setting": "[2]; [7]", "value": "97.2 ± 14.5", "unit": "g"}, {"measurement": "Nociceptive threshold after administration", "setting": "[2]; [7]", "value": "254.4 ± 33.3", "unit": "g"}, {"measurement": "nociceptive threshold following repeated administration for 14 days", "setting": "[2]", "value": "increased significantly"}, {"measurement": "Nociceptive threshold before administration", "setting": "[2]; [8]", "value": "129.2 ± 15.9", "unit": "g"}, {"measurement": "Nociceptive threshold after administration", "setting": "[2]; [8]", "value": "180.6 ± 24.4", "unit": "g"}, {"measurement": "Nociceptive threshold before administration", "setting": "[2]; [9]", "value": "104.2 ± 13.8", "unit": "g"}, {"measurement": "Nociceptive threshold after administration", "setting": "[2]; [9]", "value": "115.2 ± 18.2", "unit": "g"}, {"measurement": "nociceptive threshold after 14-day repeated, sole administration", "setting": "[2]", "value": "in neither L groups or M groups of either test articles, the nociceptive threshold increased"}]}, {"compound": "CN(C)C(=O)COc1ccc2c(c1)C[C@@H](NC[C@H](O)c1ccc(O)c(CO)c1)CC2", "note": "[Compound 1, (-)-bis{2-[(2S)-2-[{(2R)-2-hydroxy-2-(4-hydroxy-3-hydroxymethyl-phenyl)ethyl}amino]-1,2,3,4-tetrahydronaphthalen-7-yloxy]-N,N-dimethylacetamide}sulfate dihydrate]", "values": [{"measurement": "IC50", "setting": "β2 AR", "value": 14, "unit": "nM"}, {"measurement": "Nociceptive threshold before administration", "setting": "[1]; Example 4, 0.3 mg/kg oral", "value": "71.8 ± 5.3", "unit": "g"}, {"measurement": "Nociceptive threshold after administration", "setting": "[1]; Example 4, 0.3 mg/kg oral", "value": "117.6 ± 10.7", "unit": "g"}, {"measurement": "Nociceptive threshold before administration", "setting": "[1]; Example 4, 1.0 mg/kg oral", "value": "95.0 ± 5.1", "unit": "g"}, {"measurement": "Nociceptive threshold after administration", "setting": "[1]; Example 4, 1.0 mg/kg oral", "value": "131.0 ± 12.3", "unit": "g"}, {"measurement": "analgesic effects", "setting": "[1]; Example 4, 3 mg/kg and 10 mg/kg oral", "value": "apparent analgesic effects"}, {"measurement": "Nociceptive threshold before administration", "setting": "[1]; Example 4, 3.0 mg/kg oral", "value": "92.0 ± 13.3", "unit": "g"}, {"measurement": "Nociceptive threshold after administration", "setting": "[1]; Example 4, 3.0 mg/kg oral", "value": "174.6 ± 15.4", "unit": "g"}, {"measurement": "Nociceptive threshold before administration", "setting": "[1]; Example 4, 10.0 mg/kg oral", "value": "89.0 ± 10.2", "unit": "g"}, {"measurement": "Nociceptive threshold after administration", "setting": "[1]; Example 4, 10.0 mg/kg oral", "value": "253.4 ± 28.3", "unit": "g"}, {"measurement": "nociceptive thresholds after administration, dose dependence", "setting": "[1]; Example 4, 0.3, 1, 3 and 10 mg/kg oral", "value": "increased dose-dependently"}, {"measurement": "nociceptive thresholds after administration, dose dependence", "setting": "[2]; Example 5, FIG. 2, 0.3, 1, 3 and 10 mg/kg oral, 14-day repeated", "value": "clearly increased dose-dependently beginning at dosage of 0.3 mg/kg"}, {"measurement": "nociceptive threshold compared with Normal group", "setting": "[2]; Example 5, FIG. 2, oral, 14-day repeated", "value": "improved the nociceptive threshold to the same level as in Normal group"}, {"measurement": "effect of repeated administration compared with single administration", "setting": "[2]; Example 5, oral, 14-day repeated versus single", "value": "stronger effect increasing the nociceptive threshold than single administration"}, {"measurement": "nociceptive threshold of Nerve ligation group in comparison with that before administration", "setting": "Seltzer model rats [3]", "value": "improved significantly"}, {"measurement": "nociceptive threshold of the right hind-paw in comparison with that of Control group", "setting": "Seltzer model rats [4]", "value": "improved significantly"}]}, {"compound": "CC(C)(C)NCC(O)c1cc(O)cc(O)c1", "note": "(centres unmarked) [Terbutaline, terbutaline]", "values": [{"measurement": "Nociceptive threshold before administration", "setting": "[1]; [10]", "value": "122.6 ± 14.5", "unit": "g"}, {"measurement": "Nociceptive threshold after administration", "setting": "[1]; [10]", "value": "146.8 ± 20.7", "unit": "g"}, {"measurement": "Nociceptive threshold before administration", "setting": "[1]; [11]", "value": "134.2 ± 6.3", "unit": "g"}, {"measurement": "Nociceptive threshold after administration", "setting": "[1]; [11]", "value": "152.8 ± 12.7", "unit": "g"}, {"measurement": "Nociceptive threshold before administration", "setting": "[2]; [12]", "value": "228.2 ± 11.1", "unit": "g"}, {"measurement": "Nociceptive threshold after administration", "setting": "[2]; [12]", "value": "229.0 ± 14.8", "unit": "g"}, {"measurement": "nociceptive threshold following repeated administration for 14 days", "setting": "[2]", "value": "increased significantly"}, {"measurement": "Nociceptive threshold before administration", "setting": "[2]; [13]", "value": "113.8 ± 11.9", "unit": "g"}, {"measurement": "Nociceptive threshold after administration", "setting": "[2]; [13]", "value": "115.2 ± 12.6", "unit": "g"}, {"measurement": "Nociceptive threshold before administration", "setting": "[2]; [14]", "value": "155.4 ± 32.0", "unit": "g"}, {"measurement": "Nociceptive threshold after administration", "setting": "[2]; [14]", "value": "167.8 ± 32.3", "unit": "g"}, {"measurement": "nociceptive threshold after 14-day repeated, sole administration", "setting": "[2]", "value": "in neither L groups or M groups of either test articles, the nociceptive threshold increased"}]}]}
